# Tests used:
# Format in all cases: cell-based
# DOHH-2 cells = assay: ATPLite growth inhibition assay, single agent and combination (Loewe synergy); settings: single agent
# Method: (§1) The activity of compound I was examined in combination with PCI-32765 (ibrutinib), ABT-199 (venetoclax) and EPZ-6438 (Tazemetostat) across a panel of 8 DLBCL cell lines indicated below (7 GCB subtype cell lines and 1 ABC subtype cell line).
# (§2) The effect of test compounds and combinations on growth inhibition as a measure of cell viability was determined in an ATPLite assay. The endpoint readout of the assay was based upon quantitation of ATP as an indicator of viable cells.
# (§3) Cells were thawed from a liquid nitrogen preserved state. Once cells were expanded and divided at their expected doubling times, screening begins. Cells were seeded in growth media in black 384-well tissue culture treated plates at 500 cells per well (except where noted in Analyzer). Cells were equilibrated in assay plates via centrifugation and placed in incubators attached to the Dosing Modules at 37° C. for 24 hours before treatment. […] These Tzero (T0) plates were read using ultra-sensitive luminescence on Envision Plate Readers. Treated assay plates were incubated with compound for 72 hours. All data points were collected via automated processes; quality controlled; and analyzed using Horizon Discovery proprietary software. Assay plates were accepted if they pass the following quality control standards: relative luciferase values were consistent throughout the entire experiment, Z-factor scores were greater than 0.6, untreated/vehicle controls behaved consistently on the plate.
# (§4) Growth Inhibition (GI) was used as a measure of cell viability. The cell viability of vehicle was measured at the time of dosing (T0) and after seventy two hours (T72). A GI reading of 0% represented no growth inhibition—cells treated with compound and T72 or T120 vehicle signals were matched. A GI 100% represented complete growth inhibition—cells treated by compound and To vehicle signals were matched. […] A GI 200% represents complete death of all cells in the culture well. Compounds reaching an activity plateau of GI 200% were considered cytotoxic. GI was calculated by applying the following test and equation: […]
# (§5) where T is the signal measure for a test article, V is the vehicle-treated control measure, and V0 is the vehicle control measure at time zero. This formula is derived from the Growth Inhibition calculation used in the National Cancer Institute's[sic] NCl[sic]−60 high throughput screen.
# (§6) Loewe Additivity model was used for measuring the effects of drug combinations. The Loewe additivity model is dose-based and applies only to the activity levels achieved by the single agents. Loewe Volume was used to assess the overall magnitude of the combination interaction in excess of the Loewe additivity model. Loewe Volume is particularly useful when distinguishing synergistic increases in a phenotypic activity (positive Loewe Volume) versus synergistic antagonisms (negative Loewe Volume). When antagonisms are observed, the Loewe Volume should be assessed to examine if there is any correlation between antagonism and a particular drug target-activity or cellular genotype. This model defines additivity as a non-synergistic combination interaction where the combination dose matrix surface should be indistinguishable from either drug crossed with itself. The calculation for additivity is:
# (§7) To measure combination effects in excess of Loewe additivity, a scalar measure to characterize the strength of synergistic interaction was devised and termed the Synergy Score. The Synergy Score was calculated as:
# (§8) Synergy Score=log fX log fYΣ max(0,Idata)(Idata−ILoewe)
# (§9) The fractional inhibition for each component agent and combination point in the matrix was calculated relative to the median of all vehicle-treated control wells. The Synergy Score equation integrates the experimentally-observed activity volume at each point in the matrix in excess of a model surface numerically derived from the activity of the component agents using the Loewe model for additivity. […]
# NU-DHL-1 cells = assay: as above; settings: single agent
# Method: as §1, §2, §3, §4, §5, §6, §7, §8, §9
# OCI-Ly3 cells = assay: as above; settings: single agent
# Method: as §1, §2, §3, §4, §5, §6, §7, §8, §9
# Pfeiffer cells = assay: as above; settings: single agent
# Method: as §1, §2, §3, §4, §5, §6, §7, §8, §9
# SU-DHL-10 cells = assay: as above; settings: single agent; printed SU-DIAL-10
# Method: as §1, §2, §3, §4, §5, §6, §7, §8, §9
# OCI-Ly19 cells = assay: as above; settings: single agent
# Method: as §1, §2, §3, §4, §5, §6, §7, §8, §9
# [1] = system: panel of 8 DLBCL cell lines; assay: ATPLite growth inhibition assay across the cell line panel; settings: single agent, FIG. 9
# Method: as §1, §2
# Cells were thawed from a liquid nitrogen preserved state. Once cells were expanded and divided at their expected doubling times, screening begins. Cells were seeded in growth media in black 384-well tissue culture treated plates at 500 cells per well (except where noted in Analyzer). […] These Tzero (T0) plates were read using ultra-sensitive luminescence on Envision Plate Readers. […] All data points were collected via automated processes; quality controlled; and analyzed using Horizon Discovery proprietary software. […]
# Growth Inhibition (GI) was used as a measure of cell viability. The cell viability of vehicle was measured at the time of dosing (T0) and after seventy two hours (T72). A GI reading of 0% represented no growth inhibition—cells treated with compound and T72 or T120 vehicle signals were matched. […] GI was calculated by applying the following test and equation: […]
smiles,measurement,setting,value
"CN1CCC(c2ccccc2CC(C)(C)Nc2nc(N3CCOCC3)nc(-n3c(C(F)F)nc4ccccc43)n2)CC1 [Compound I, 4-(2-(difluoromethyl)-1H-benzo[d]imidazol-1-yl)-N-(2-methyl-1-(2-(1-methylpiperidin-4-yl)phenyl)propan-2-yl)-6-morpholino-1,3,5-triazin-2-amine]",kind of growth inhibition effect (FIG. 10),DOHH-2 cells,cytotoxic effects
same,kind of growth inhibition effect (FIG. 10),NU-DHL-1 cells,sub-cytostatic effects
same,kind of growth inhibition effect (FIG. 10),OCI-Ly3 cells,cytotoxic effects
same,kind of growth inhibition effect (FIG. 10),Pfeiffer cells,sub-cytostatic effects
same,kind of growth inhibition effect (FIG. 10),SU-DHL-10 cells,sub-cytostatic effects
same,kind of growth inhibition effect (FIG. 10),OCI-Ly19 cells,cytotoxic effects
same,growth inhibition levels,[1]; all cell lines,> 50%
same,GI50,[1]; median across cell line panel,1730 nM
